The test system of one experiment is caspase-3. The experiment is described as follows: caspase-3 activity assay in MPP^+-treated BE(2)-M17 cells. The class given is cell-based, human. The method, then:
BE(2)-M17 cells were plated onto six-well (4 × 10^5/well) and treated with retinoic acid, LM compounds (10 μM), and MPP^+ as described. Cells were collected on day 7 and lysed by six freeze/thaw cycles. Types of substrates applied were: Ac-Tyr-Val-Ala-Asp-7-amino-4-trifluoromethyl coumarin (YVAD-AFC) for caspase-1, Ac-Val-Glu-Ile-Asp-7-amino-4-trifluoromethyl coumarin (VEID-AFC) for caspase-6 (BioVision, Milpitas, CA, USA), and Ac-Asp-Glu-Val-Asp-7-amido-4-methylcoumarin (DEVD-AMC) for caspase-3 (Sigma-Aldrich). The reaction mixtures were incubated for 1.5 h at 37°C per the manufacturer's instructions. The fluorescence intensity at 400 nm excitation and 505 nm emission (caspase-1 and caspase-6) or 360 nm excitation and 460 nm emission (caspase-3) wavelengths were recorded (BioTek FLx800).

Another experiment has as its system NQO1. Put plainly: Western blot NQO1 in MPP^+-treated BE(2)-M17 cells. The class given is cell-based, human. The following applies: BE(2)-M17, compound 10 μM + 0.62 mM MPP^+; MPP^+ alone 53%; untreated = 100%.
Experiment [1] has as its system MPP^+-activated HMC3 cells. The experiment is described as follows: cell viability (MTT) in MPP^+-activated HMC3 cells. It counts as cell-based. Conditions: Homo sapiens; HMC3, compound 10 μM 8 h pre-treatment, then 4 mM MPP^+ 20 h; MPP^+ alone 63%; MPP^+-untreated = 100%. The protocol: To examine anti-inflammatory potential of LM compounds, HMC3 cells were plated into six-well (2 × 10^5/well) dishes, grown for 20 h, and pre-treated with compounds (10 μM) for 8 h before 4 mM MPP^+ addition for 20 h. The cell viability was evaluated by MTT assay as described, and the release of nitric oxide (NO) in cell culture medium was examined by Griess reagent kit (Thermo Fisher Scientific) based on a classic protocol.

Experiment [2] is described as follows: DPPH free radical scavenging activity. Conditions: 10–160 μM, 30 min, room temperature. The method, then: Stable 1,1-diphenyl-2-picrylhydrazyl (DPPH) radical in ethanol (100 μM; Sigma-Aldrich) was used to measure the antioxidant activity of these LM compounds. After addition of quercetin (positive control) or LM compound (10–160 μM), the mixture was vortexed for 15 s and incubated at room temperature for 30 min. Subsequently, the mixture was measured spectrophotometrically at 517 nm (Multiskan GO microplate spectrophotometer; Thermo Fisher Scientific). The free radical scavenging activity was calculated as the percentage of DPPH discoloration using the formula 1 – (absorbance of sample/absorbance of control) × 100%, with half maximal effective concentration (EC50) calculated using the interpolation method.

In the next experiment the test system is BDNF. The experiment is described as follows: Western blot BDNF in MPP^+-treated BE(2)-M17 cells. It counts as cell-based, human. Conditions: BE(2)-M17, compound 10 μM + 0.62 mM MPP^+; MPP^+ alone 78%; untreated = 100%. The protocol:
(§1) HMC3 (2 × 10^5/6-well) or BE(2)-M17 (4 × 10^5/6-well) cells were lysed in buffer (composition: 50 mM Tris-HCl pH8.0, 2 mM EDTA pH8.0, 150 mM NaCl, 0.5% sodium deoxycholate, 0.1% SDS, 50 mM NaF, 1% NP40) containing the protease and/or phosphatase inhibitor cocktail (Sigma-Aldrich). After sonication, the lysates were centrifuged (12,000 × g for 10 min at 4°C) and protein concentrations determined (Bradford protein assay; Bio-Rad, Hercules, CA, USA). Aliquots of protein (20 μg) were separated by electrophoresis using 10%−12% SDS–polyacrylamide gel followed by transfer to a polyvinylidene fluoride (PVDF) membrane. […] The immune complexes were detected using horseradish peroxidase (HRP)-conjugated goat anti-mouse or goat anti-rabbit IgG antibody (1:5,000; GeneTex) and chemiluminescent HRP substrate (Millipore, Burlington, MA, USA). Immunoreactive bands were captured (ImageQuant™ LAS 4000, GE Healthcare, Chicago, IL, USA) and quantified (Multi Gauge V3.0 software, Fujifilm, Tokyo, Japan).
In general terms: Immunoblotting shows a protein as a band on a membrane.

The subject of the next experiment is BCL2. The experiment is described as follows: Western blot BCL2 in MPP^+-treated BE(2)-M17 cells. It counts as cell-based, human. Conditions: BE(2)-M17, compound 10 μM + 0.62 mM MPP^+; MPP^+ alone 70%; untreated = 100%. The method, then: as §1
A further experiment deals with p-CREB (Ser133). Put plainly: Western blot p-CREB (Ser133) in MPP^+-treated BE(2)-M17 cells. The class given is cell-based, human. Conditions: BE(2)-M17, compound 10 μM + 0.62 mM MPP^+; MPP^+ alone 83%; untreated = 100%. The protocol:
as §1

Setting [3] is: BE(2)-M17, compound 10 μM + 0.62 mM MPP^+, MPP^+-untreated = 100%.

The viability is the share of living cells, or the viability signal relative to a control. Broadly, the EC50 is the concentration needed to bring the measured effect to its halfway point. Low values mean higher potency in that assay, high ones lower potency in that assay.

Procedure for NQO1: HMC3 (2 × 10^5/6-well) or BE(2)-M17 (4 × 10^5/6-well) cells were lysed in buffer (composition: 50 mM Tris-HCl pH8.0, 2 mM EDTA pH8.0, 150 mM NaCl, 0.5% sodium deoxycholate, 0.1% SDS, 50 mM NaF, 1% NP40) containing the protease and/or phosphatase inhibitor cocktail (Sigma-Aldrich). After sonication, the lysates were centrifuged (12,000 × g for 10 min at 4°C) and protein concentrations determined (Bradford protein assay; Bio-Rad, Hercules, CA, USA). […] The immune complexes were detected using horseradish peroxidase (HRP)-conjugated goat anti-mouse or goat anti-rabbit IgG antibody (1:5,000; GeneTex) and chemiluminescent HRP substrate (Millipore, Burlington, MA, USA). Immunoreactive bands were captured (ImageQuant™ LAS 4000, GE Healthcare, Chicago, IL, USA) and quantified (Multi Gauge V3.0 software, Fujifilm, Tokyo, Japan).

Consider `Cc1ccc(/C=C/C(=O)c2c(O)c3ccccc3oc2=O)cc1` [LM-016], for which the caspase-3 activity in the experiment on caspase-3 (setting [3]) is reported as 102%. Moreover, the NQO1 level in the experiment with NQO1 was 81–86%. Moreover, in experiment [1], the viability at 10 µM was 81 to 86%. This compound also showed an EC50 in experiment [2] of 127 µM.

Regarding `CN(C)c1ccc(/C=C/C(=O)c2c(O)c3ccccc3oc2=O)cc1` [LM-021, (E)-3-(3-(4-(dimethylamino)phenyl)acryloyl)-4-hydroxy-2H-chromen-2-one], in the experiment on caspase-3 (setting [3]), the caspase-3 activity stood at 101%. Also, in the experiment on BDNF, the BDNF level is on record as 109–110%. Also, the BCL2 level in the experiment with BCL2 is 99–110%. Also, the “p-CREB (Ser133) level” value in the experiment on p-CREB (Ser133) is 102–105%. This compound gave an EC50 in experiment [2] of 65 µM.

Consider `O=C(/C=C/c1ccccc1O)c1c(O)c2ccccc2oc1=O` [LM-036], for which, in the experiment with caspase-3 (setting [3]), the caspase-3 activity is on record as 101%. For the same compound, the BDNF level in the experiment with BDNF was 109–110%. In addition, in the experiment with NQO1, the NQO1 level is 81–86%. Besides, the BCL2 level in the experiment on BCL2 is 99–110%. Further, in the experiment with p-CREB (Ser133), the “p-CREB (Ser133) level” value is given as 102–105%.

For the compound `C[n+]1ccc(-c2ccccc2)cc1` [MPP^+, 1-methyl-4-phenyl pyridinium, reference compound], the caspase-3 activity in the experiment with caspase-3 (BE(2)-M17, 0.62 mM MPP^+ alone, untreated = 100%) turned out to be 114%.

The record behind these values is article PMC11473416, “Coumarin-chalcone derivatives as dual NLRP1 and NLRP3 inflammasome inhibitors targeting oxidative stress and inflammation in neurotoxin-induced HMC3 and BE(2)-M17 cell models of Parkinson's disease” (Frontiers in Aging Neuroscience, 2024).
